Reference: PubChem BioAssay (NCI)
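Grown in 96-well plates, cells were treated for 48 hours with each compound at five concentrations. Insufficient inhibition: endpoint recorded as highest concentration tested. The concentration for full growth arrest is given as TGI.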

Legend:
Assay in all cases: NCI-60 cell line screen, 48 h
A498 renal = tested on: A498 renal
A549 NSCLC = tested on: A549 NSCLC
ACHN renal = tested on: ACHN renal
CAKI-1 renal = tested on: CAKI-1 renal
CCRF-CEM leukemia = tested on: CCRF-CEM leukemia
COLO 205 colon = tested on: COLO 205 colon
DLD-1 colon = tested on: DLD-1 colon
DMS 114 small cell lung = tested on: DMS 114 small cell lung
EKVX NSCLC = tested on: EKVX NSCLC
HCC-2998 colon = tested on: HCC-2998 colon
HCT-116 colon = tested on: HCT-116 colon
HCT-15 colon = tested on: HCT-15 colon
HL-60(TB) leukemia = tested on: HL-60(TB) leukemia
HOP-62 NSCLC = tested on: HOP-62 NSCLC
HT29 colon = tested on: HT29 colon
K-562 leukemia = tested on: K-562 leukemia
KM12 colon = tested on: KM12 colon
KM20L2 colon = tested on: KM20L2 colon
LOX IMVI melanoma = tested on: LOX IMVI melanoma
LXFL 529 NSCLC = tested on: LXFL 529 NSCLC
M14 melanoma = tested on: M14 melanoma
M19-MEL melanoma = tested on: M19-MEL melanoma
MALME-3M melanoma = tested on: MALME-3M melanoma
MOLT-4 leukemia = tested on: MOLT-4 leukemia
NCI-H226 lung = tested on: NCI-H226 lung
NCI-H522 lung = tested on: NCI-H522 lung
OVCAR-3 ovarian = tested on: OVCAR-3 ovarian
OVCAR-5 ovarian = tested on: OVCAR-5 ovarian
OVCAR-8 ovarian = tested on: OVCAR-8 ovarian
RPMI-8226 leukemia = tested on: RPMI-8226 leukemia
RXF-631 renal = tested on: RXF-631 renal
SF-268 CNS = tested on: SF-268 CNS
SF-295 CNS = tested on: SF-295 CNS
SF-539 CNS = tested on: SF-539 CNS
SK-MEL-2 melanoma = tested on: SK-MEL-2 melanoma
SK-MEL-28 melanoma = tested on: SK-MEL-28 melanoma
SK-OV-3 ovarian = tested on: SK-OV-3 ovarian
SN12C renal = tested on: SN12C renal
SNB-19 CNS = tested on: SNB-19 CNS
SNB-75 CNS = tested on: SNB-75 CNS
SNB-78 CNS = tested on: SNB-78 CNS
SW-620 colon = tested on: SW-620 colon
UACC-257 melanoma = tested on: UACC-257 melanoma
UACC-62 melanoma = tested on: UACC-62 melanoma
UO-31 renal = tested on: UO-31 renal
XF 498 CNS = tested on: XF 498 CNS
786-0 renal = tested on: 786-0 renal
DMS 273 small cell lung = tested on: DMS 273 small cell lung
HOP-92 NSCLC = tested on: HOP-92 NSCLC
IGROV1 ovarian = tested on: IGROV1 ovarian
NCI-H23 lung = tested on: NCI-H23 lung
NCI-H460 lung = tested on: NCI-H460 lung
OVCAR-4 ovarian = tested on: OVCAR-4 ovarian
RXF 393 renal = tested on: RXF 393 renal
SK-MEL-5 melanoma = tested on: SK-MEL-5 melanoma
TK-10 renal = tested on: TK-10 renal
SR leukemia = tested on: SR leukemia
U251 CNS = tested on: U251 CNS

Measured: TGI

CCNC(=O)N(CC)CN(CC)C(=O)NCC
not listed: 786-0 renal | DMS 273 small cell lung | HOP-92 NSCLC | IGROV1 ovarian | NCI-H23 lung | NCI-H460 lung | OVCAR-4 ovarian | RXF 393 renal | SK-MEL-5 melanoma | TK-10 renal | SR leukemia | U251 CNS
> 100 µM: all other assays above

CCOC(=O)C(C)c1c(C(=O)c2ccc(C)nc2)c2ccccc2n1C (stereo not drawn)
not listed: A498 renal | HCT-116 colon | NCI-H226 lung | SF-539 CNS | SNB-19 CNS | UO-31 renal | SR leukemia | U251 CNS
> 100 µM: all other assays above

COc1cccc2c1N[S@](=O)S2
not listed: A498 renal | COLO 205 colon | DMS 114 small cell lung | HCC-2998 colon | HOP-62 NSCLC | OVCAR-5 ovarian | OVCAR-8 ovarian | NCI-H460 lung | OVCAR-4 ovarian | RXF 393 renal | SK-MEL-5 melanoma
> 100 µM: all other assays above
